Assay results published in US5712300A, “Hydroxamic acid derivatives useful for the treatment of diseases related to connective tissue degradation” (priority 1997, dated 1998).

Assays:
Assay type in all cases: biochemical
Stromelysin = Stromelysin (Homo sapiens, UniProt P08254); experiment: MMP inhibition by particle concentration fluorescence technique (stromelysin); details: pH 7.5; 15 min enzyme preincubation; substrate 1-3 h at room temperature; read-out: MMP Inhibition Constants, Stromelysin Ki
Excerpt: An inhibitor binds to MMP enzymes prevents the degradation of a substrate of stromelysin, gelatinase, or collagenase. The substrate is attached with a fluorescein and a biotin. The intact substrate then binds to an avidin-coated particle via the biotin moiety. Once the particle is washed and dried, a fluorescent signal is generated since the fluorescent group is attached to the particle. Without an inhibitor present, the substrate is degraded by MMP enzymes and the fluorescein group is removed, therefore, no fluorescent signal can be detected. […] Serial two-fold dilutions of each compound are prepared. A concentrated, activated enzyme solution is transferred into each plate of the testing compounds, and the mixture is incubated at room temperature for 15 minutes.

Collagenase = target: T1, Collagenase (Homo sapiens, UniProt P03956); experiment: MMP inhibition by particle concentration fluorescence technique (collagenase); details: pH 7.5; 15 min enzyme preincubation; substrate 1-3 h at room temperature; read-out: MMP Inhibition Constants, Collagenase Ki
T1 sequence (P03956 100-469): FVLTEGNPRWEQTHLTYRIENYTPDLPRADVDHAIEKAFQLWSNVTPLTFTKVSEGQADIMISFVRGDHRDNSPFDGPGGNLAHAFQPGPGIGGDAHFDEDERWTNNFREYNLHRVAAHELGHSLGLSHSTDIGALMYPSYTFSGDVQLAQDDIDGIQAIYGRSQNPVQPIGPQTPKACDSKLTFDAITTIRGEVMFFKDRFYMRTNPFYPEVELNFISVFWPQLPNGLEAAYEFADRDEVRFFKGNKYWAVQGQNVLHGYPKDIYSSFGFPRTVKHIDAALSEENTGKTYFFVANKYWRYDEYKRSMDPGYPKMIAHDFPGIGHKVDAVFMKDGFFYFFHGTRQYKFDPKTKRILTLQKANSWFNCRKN
Experimental: (§1) Inhibitory activity is evaluated in one or more of the MMP enzymes (stromelysin, gelatinase, and collagenase) in vitro using a particle concentration fluorescence techniques. An inhibitor binds to MMP enzymes prevents the degradation of a substrate of stromelysin, gelatinase, or collagenase. The substrate is attached with a fluorescein and a biotin. The intact substrate then binds to an avidin-coated particle via the biotin moiety. Once the particle is washed and dried, a fluorescent signal is generated since the fluorescent group is attached to the particle. Without an inhibitor present, the substrate is degraded by MMP enzymes and the fluorescein group is removed, therefore, no fluorescent signal can be detected. Testing compounds are dissolved in DMSO to the desired concentration, then the solutions are diluted to 1:5 with MMP buffer (50 mM Tris-HCl, pH 7.5; 150 mM NaCl; 0.02% NAN3). Serial two-fold dilutions of each compound are prepared. A concentrated, activated enzyme solution is transferred into each plate of the testing compounds, and the mixture is incubated at room temperature for 15 minutes. Thawed MMP substrate is then added into all plates, and the plates are incubate in the dark for 1-3 hours at room temperature. At this point, the substrate mixture is reacted with 0.1% avidin-coated polystyrene particles.

Gelatinase = experiment: MMP inhibition by particle concentration fluorescence technique (gelatinase); details: pH 7.5; 15 min enzyme preincubation; substrate 1-3 h at room temperature; read-out: MMP Inhibition Constants, Gelatinase Ki
Experimental: as §1

Sequence of Stromelysin (P08254 100-477): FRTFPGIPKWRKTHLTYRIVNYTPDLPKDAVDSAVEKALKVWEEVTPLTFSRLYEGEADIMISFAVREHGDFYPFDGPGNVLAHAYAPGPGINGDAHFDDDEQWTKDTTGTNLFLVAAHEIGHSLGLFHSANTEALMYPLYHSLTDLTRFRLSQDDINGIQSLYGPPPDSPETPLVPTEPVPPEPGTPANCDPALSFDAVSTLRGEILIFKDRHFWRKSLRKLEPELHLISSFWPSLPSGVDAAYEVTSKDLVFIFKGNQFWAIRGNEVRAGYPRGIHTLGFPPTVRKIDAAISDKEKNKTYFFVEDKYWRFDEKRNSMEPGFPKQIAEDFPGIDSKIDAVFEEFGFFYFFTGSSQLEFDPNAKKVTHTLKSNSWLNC

Structure (SMILES)	Ki (Stromelysin) [nM]	Ki (Collagenase) [nM]	Ki (Gelatinase) [nM]
CC(C)C[C@@]1(CC(=O)NO)CCN(CCc2ccccc2)C1=O [Example 2, (3S)-N-Hydroxy-3-(2-methylpropyl)-2-oxo-1-(2-phenylethyl)-3-pyrrolidineacetamide]	20200	1040	3290
CC(C)C[C@@]1(CC(=O)NO)CCN([C@@H](Cc2ccccc2)C(=O)NCCc2ccccc2)C1=O [Example 31, [S-(R*,R*)]-N^3 -Hydroxy-3-(2-methylpropyl)-2-oxo-N^1-(2-phenethyl)-α^1-(phenylmethyl)-1,3-pyrrolidinediacetamide]	517	96	19.3
CC(C)C[C@@]1([C@@H](CCN2C(=O)c3cccc(F)c3C2=O)C(=O)NO)CCN(CCc2ccccc2)C1=O (relative stereo) [Example 12, α-[2-(4-Fluoro-1,3-dihydro-1,3-dioxo-2H-isoindol-2-yl)ethyl]-N-hydroxy-3-(2-methylpropyl)-2-oxo-1-(2-phenylethyl)-3-pyrrolidineacetamide]	120		312
CNC(=O)CN1CC[C@@](CC(C)C)([C@@H](CCN2C(=O)c3c(F)c(F)c(F)c(F)c3C2=O)C(=O)NO)C1=O (relative stereo) [Example 27, N^3 -Hydroxy-N^1-methyl-3-(2-methylpropyl)-2-oxo-α^3-[2-(4,5,6,7-tetrafluoro-1,3-dihydro-1,3-dioxo-2H-isoindol-2-yl)ethyl]-1,3-pyrrolidinediacetamide]	11000		16500
CC(C)C[C@@]1([C@@H](CCN2C(=O)c3ccccc3C2=O)C(=O)NO)CCN(CCc2ccccc2)C1=O [Example 5, (3S)-α-[2-(1,3-Dihydro-1,3-dioxo-2H-isoindol-2-yl)ethyl]-N-hydroxy-3-(2-methylpropyl)-2-oxo-1-(2-phenylethyl)-3-pyrrolidineacetamide]		4370	115
CNC(=O)CN1CC[C@@](CC(C)C)([C@@H](CCN2C(=O)c3ccccc3C2=O)C(=O)NO)C1=O (relative stereo) [Example 26, α^3-[2-(1,3-Dihydro-1,3-dioxo-2H-isoindol-2-yl)ethyl]-N^3-hydroxy-N^1-methyl-3-(2-methylpropyl)-2-oxo-1,3-pyrrolidinediacetamide]	713		998
CC(C)C[C@@]1([C@@H](CCN2C(=O)c3c(F)ccc(F)c3C2=O)C(=O)NO)CCN(CCc2ccccc2)C1=O (relative stereo) [Example 13, α-[2-(4,7-Difluoro-1,3-dihydro-1,3-dioxo-2H-isoindol-2-yl)ethyl]-N-hydroxy-3-(2-methylpropyl)-2-oxo-1-(2-phenylethyl)-3-pyrrolidineacetamide]	334		280
CC(C)C[C@@]1([C@@H](CCN2C(=O)c3ccccc3C2=O)C(=O)NO)CCN(CCc2ccccc2)C1=O (relative stereo) [Example 4, α-[2-(1,3-Dihydro-1,3-dioxo-2H-isoindol-2-yl)ethyl]-N-hydroxy-3-(2-methylpropyl)-2-oxo-1-(2-phenylethyl)-3-pyrrolidineacetamide]		5700	204
CC(C)C[C@@]1([C@@H](CCN2C(=O)c3c(F)c(F)c(F)c(F)c3C2=O)C(=O)NO)CCN(CCc2ccccc2)C1=O (relative stereo) [Example 7, N-Hydroxy-3-(2-methylpropyl)-2-oxo-1-(2-phenylethyl)-α-[2-(4,5,6,7-tetrafluoro-1,3-dihydro-1,3-dioxo-2H-isoindol-2-yl)ethyl]-3-pyrrolidineacetamide]	1270		1420

Results, then the compound that gave them:

Ki (Stromelysin) [nM]	Ki (Collagenase) [nM]	Ki (Gelatinase) [nM]	Structure (SMILES)
1990	37	10.5	CC(C)C[C@@]1(CC(=O)NO)CCN([C@@H](Cc2ccccc2)C(=O)NCc2ccccn2)C1=O [Example 40, [S-(R*,R*)]-N^3 -Hydroxy-3-(2-methylpropyl)-2-oxo-α^1-(phenylmethyl)-N^1-(2-pyridinylmethyl)-1,3-pyrrolidinediacetamide]
91	230	4.88	CC(C)C[C@@]1([C@@H](CCN2Cc3ccc(F)cc3C2=O)C(=O)NO)CCN(CCc2ccccc2)C1=O [Example 87, [R-(R*,S*)]-6-Fluoro-1,3-dihydro-N-hydroxy-α-[3-(2-methylpropyl)-2-oxo-1-(2-phenylethyl)-3-pyrrolidinyl]-1-oxo-2H-isoindole-2-butanamide]
84	42.2	23	CC(C)C[C@@]1(CC(=O)NO)CCN([C@H](C(=O)Nc2ccccn2)C2CCCCC2)C1=O [Example 51, [S-(R*,R*)]-α^1 -Cyclohexyl-N^3-hydroxy-3-(2-methylpropyl)-2-oxo-N^1-2-pyridinyl-1,3-pyrrolidinediacetamide]
2080	98	1100	CC(C)C[C@@]1([C@H](NS(=O)(=O)c2ccc(F)cc2)C(=O)NO)CCN(CCc2ccccc2)C1=O (relative stereo) [Example 93, α-[[(4-Fluorophenyl)sulfonyl]amino]-N-hydroxy-3-(2-methylpropyl)-2-oxo-1-(2-phenylethyl)-3-pyrrolidineacetamide]
700	76	70	CC(C)C[C@@]1(CC(=O)NO)CCN([C@@H](Cc2ccccc2)C(=O)NCCN2CCOCC2)C1=O [Example 54, [S-(R*,R*)]-N^3 -Hydroxy-3-(2-methylpropyl)-N^1-[2-(4-morpholinyl)ethyl]-2-oxo-α^1-(phenylmethyl)-1,3-pyrrolidinediacetamide]
	31		CNC(=O)[C@H](CC1CCCCC1)N1CC[C@](CC(=O)NO)(CC(C)C)C1=O [Example 33, [S-(R*,R*)]-α^1-(Cyclohexylmethyl)-N^3-hydroxy-N^1-methyl-3-(2-methylpropyl)-2-oxo-1,3-pyrrolidinediacetamide]
146	68.5		CC(C)C[C@@]1([C@@H](CCNC(=O)c2cccc(F)c2)C(=O)NO)CCN(CCc2ccccc2)C1=O (relative stereo) [Example 77, α-[2-[(3-Fluorobenzoyl)amino]ethyl]-N-hydroxy-3-(2-methylpropyl)-2-oxo-1-(2-phenylethyl)-3-pyrrolidineacetamide]
194	1200		CCOC(=O)N(CC[C@@H](C(=O)NO)[C@]1(CC(C)C)CCN(CCc2ccccc2)C1=O)C(=O)OCc1ccccc1 (relative stereo) [Example 70, Ethyl Phenylmethyl[4-(hydroxyamino)-3-[3-(2-methylpropyl)-2-oxo-1-(2-phenylethyl)-3-pyrrolidinyl]-4-oxobutyl]imidodicarbonate]
23		2.9	CNC(=O)[C@H](Cc1ccccc1)N1CC[C@@](CC(C)C)([C@H](CCN2C(=O)c3ccccc3C2=O)C(=O)NO)C1=O [Example 58, [3S-[1(R*),3R*(R*)]]-α^3-[2-(1,3-Dihydro-1,3-dioxo-2H-isoindol-2-yl)ethyl]-N^3-hydroxy-N^1-methyl-3-(2-methylpropyl)-2-oxo-α^1-(phenylmethyl)-1,3-pyrrolidinediacetamide]
116		31	CC(C)C[C@@]1([C@@H](CCN2Cc3cc(F)c(F)cc3C2=O)C(=O)NO)CCN(CCc2ccccc2)C1=O (relative stereo) [Example 85, 5,6-Difluoro-1,3-dihydro-N-hydroxy-α-[3-(2-methylpropyl)-2-oxo-1-(2-phenylethyl)-3-pyrrolidinyl]-1-oxo-2H-isoindole-2-butanamide]
	98		CC(C)C[C@@]1([C@H](CCN2C(=O)c3ccccc3C2=O)C(=O)NO)CCN(CCc2ccccc2)C1=O [Example 71, [S-(R*,R*)]-1,3-Dihydro-N-hydroxy-α-[3-(2-methylpropyl)-2-oxo-1-(2-phenylethyl)-3-pyrrolidinyl]-1,3-dioxo-2H-isoindole-2-butanamide]
2400		44000	CC(C)CC1(CC(=O)NO)C(=O)N(CCc2ccccc2)C(=O)N1C (centres unmarked) [Example 36, N-Hydroxy-3-methyl-4-(2-methylpropyl)-2,5-dioxo-1-(2-phenylethyl)-4-imidazolidineacetamide]
